{"source": "patent US9765087B2", "about": "“Benzimidazole derivatives” (ENANTA PHARMACEUTICALS, INC., priority 2009, dated 2017)"}
{"tested_on": "HCV 1b genotype replicon", "test": "HCV replicon assay (qRT-PCR or luciferase), genotype 1b", "assay_type": "cell-based", "conditions": "Hepatitis C virus, Table 11, qRT-PCR or luciferase assay, read-out: Genotype-1b replicon EC50 Range", "excerpt": "(§1) HCV replicon cell lines (kindly provided by R. Bartenschlager) isolated from colonies as described by Lohman et. al. (Lohman et al. (1999) Science 285: 110-113, expressly incorporated by reference in its entirety) and used for all experiments. The HCV replicon has the nucleic acid sequence set forth in EMBL Accession No.: AJ242651, the coding sequence of which is from nucleotides 1801 to 8406.\n(§2) The coding sequence of the published HCV replicon was synthesized and subsequently assembled in a modified plasmid pBR322 (Promega, Madison, Wis.) using standard molecular biology techniques. One replicon cell line (“SGR 11-7”) stably expresses HCV replicon RNA which consists of (i) the HCV 5′UTR fused to the first 12 amino acids of the capsid protein, (ii) the neomycin phosphotransferase gene (neo), (iii) the IRES from encephalomyocarditis virus (EMCV), and (iv) HCV […] to NSSB genes and the HCV 3′UTR. Another replicon cell line (“Huh-luc/neo-ET”) described by Vrolijk et. al. (Vrolijk et. al. (2003) Journal of Virological Methods 110:201-209, expressly incorporated by reference in its entirety) stably expresses HCV replicon RNA which consists of (i) the HCV 5′UTR fused to the first 12 amino acids of the capsid protein, (ii) the firefly luciferase reporter gene, (iii) the ubiquitin gene, (iv) the neomycin phosphotransferase gene (neo), (v) the IRES from encephalomyocarditis virus (EMCV), and (vi) HCV NS3 to NS5B genes that harbor cell culture adaptive mutations (E1202G, T1280I, K1846T) and the HCV 3′UTR.\n(§3) These cell lines were maintained at 37° C., 5% CO2, 100% relative humidity in DMEM (Cat#11965-084, Invitrogen), with 10% fetal calf serum (“FCS”, Invitrogen), 1% non-essential amino acids (Invitrogen), 1% of Glutamax (Invitrogen), 1% of 100× penicillin/streptomycin (Cat#15140-122, Invitrogen) and Geneticin (Cat#10131-027, Invitrogen) at 0.75 mg/ml or 0.5 mg/ml for 11-7 and Huh-luc/neo-ET cells, respectively.\n(§4) EC50 values of single agent compounds and combinations were determined by HCV RNA detection using quantitative RT-PCR, according to the manufacturer's instructions, with a TAQMAN® One-Step RT-PCR Master Mix Reagents Kit (Cat#AB 4309169, Applied Biosystems) on an ABI Model 7500 thermocycler. The TaqMan primers used for detecting and quantifying HCV RNA were obtained from Integrated DNA Technologies. HCV RNA was normalized to GAPDH RNA levels in drug-treated cells, which is detected and quantified using the Human GAPDH Endogenous Control Mix (Applied Biosystems, AB 4310884E). Total cellular RNA is purified from 96-well plates using the RNAqueous 96 kit (Ambion, Cat# AM1812). Chemical agent cytotoxicity is evaluated using an MTS assay according to the manufacturer's directions (Promega).\n(§5) Since clinical drug resistance often develops in viral infections following single agent therapies, there is a need to assess the additive, antagonistic, or synergistic properties of combination therapies. We used the HCV replicon system to assess the potential use of the compound of the present invention or in combination therapies with Interferon alpha, cyclosporine analogs and inhibitors targeting other HCV proteins. The acute effects of a single or combinations of drugs are studied in the “Huh-luc/neo-ET” replicon with each chemical agent titrated in an X or Y direction in a 6 point two-fold dilution curve centered around the EC50 of each drug. Briefly, replicon cells are seeded at 7,000 cells per well in 90 ul DMEM (without phenol red, Invitrogen Cat.#31053-036) per well with 10% FCS, 1% non-essential amino acids, 1% of Glutamax and 1% of 100× penicillin/streptomycin and incubated overnight at 37° C., 5% CO2, 100% relative humidity. […]", "units": {"EC50": "nM"}}
{"smiles": "COC(=O)N[C@H](C(=O)N1CCC[C@H]1c1nc(CCc2ccc3cc(-c4ccc5[nH]c([C@@H]6CCCN6C(=O)[C@@H](NC(=O)OC)C(C)C)nc5c4)ccc3c2)c[nH]1)C(C)C", "note": "[Example 472]", "EC50": "< 1"}
{"smiles": "COC(=O)N[C@@H](C(=O)N1CCC[C@H]1c1ncc(-c2ccc(-c3ccc4[nH]c([C@@H]5CCCN5C(=O)[C@H](NC(=O)OC)c5ccccc5)nc4c3)cc2)[nH]1)c1ccccc1", "note": "[Example 2]", "EC50": "< 1"}
{"smiles": "COC(=O)N[C@H](C(=O)N1CCC[C@H]1c1nc(-c2ccc(CCCc3ccc4[nH]c([C@@H]5CCCN5C(=O)[C@@H](NC(=O)OC)C(C)C)nc4c3)s2)c[nH]1)C(C)C", "note": "[Example 457]", "EC50": "< 1"}
{"smiles": "COC(=O)N[C@H](C(=O)N1CCC[C@H]1c1ncc(-c2ccc(C#Cc3ccc4nc([C@@H]5CCCN5C(=O)[C@@H](NC(=O)OC)[C@@H](C)O)[nH]c4c3)cc2)[nH]1)[C@@H](C)O", "note": "[Example 527]", "EC50": "< 1"}
{"smiles": "CCOC(=O)N[C@H](C(=O)N1CCC[C@H]1c1nc2cc(C#Cc3ccc(-c4c[nH]c([C@@H]5CCCN5C(=O)[C@@H](NC(=O)OC)C(C)C)n4)cc3)ccc2[nH]1)C(C)C", "note": "[Example 481]", "EC50": "< 1"}
{"smiles": "COC(=O)N[C@H](C(=O)N1CCC[C@H]1c1nc(-c2ccc3cc(-c4ccc5[nH]c([C@@H]6CCCN6C(=O)[C@@H](NC(=O)OC)[C@@H](C)OC)nc5c4)ccc3c2)c[nH]1)[C@@H](C)OC", "note": "[Example 460]", "EC50": "< 1"}
{"smiles": "COC(=O)N[C@H](C(=O)N1CCC[C@H]1c1ncc(-c2ccc(C#Cc3ccc4nc([C@@H]5CCCN5C(=O)[C@@H](NC(=O)OC)[C@H](C)O)[nH]c4c3)cc2)[nH]1)C(C)C", "note": "[Example 531]", "EC50": "< 1"}
{"smiles": "[2H]c1c([2H])c(-c2c[nH]c([C@@H]3CCCN3C(=O)[C@@H](NC(=O)OC)C(C)C)n2)c([2H])c([2H])c1C#Cc1ccc2[nH]c([C@@H]3CCCN3C(=O)[C@@H](NC(=O)OC)C(C)C)nc2c1", "note": "[Example 488]", "EC50": "< 1"}
{"smiles": "COC(=O)N[C@H](C(=O)N1CCC[C@H]1c1nc(-c2ccc(C#Cc3ccc4[nH]c([C@@H]5CCCN5C(=O)[C@@H](NC(C)=O)C(C)C)nc4c3)cc2)c[nH]1)C(C)C", "note": "[Example 506]", "EC50": "< 1"}
{"smiles": "COC(=O)N[C@H](C(=O)N1CCC[C@H]1c1ncc(-c2ccc(C#Cc3ccc4nc([C@@H]5CC[C@H](C)N5C(=O)[C@@H](NC(=O)OC)C(C)C)[nH]c4c3)cc2)[nH]1)C(C)C", "note": "[Example 542]", "EC50": "< 1"}
{"smiles": "COC(=O)N[C@H](C(=O)N1CCC[C@H]1c1ncc(-c2ccc(-c3ccc(-c4ccc5nc([C@@H]6CCCN6C(=O)[C@@H](NC(=O)OC)C(C)C)[nH]c5c4)cc3)cc2)[nH]1)C(C)C", "note": "[Example 499]", "EC50": "< 1"}
{"smiles": "COC(=O)N[C@H](C(=O)N1CCC[C@H]1c1nc(-c2ccc(C#Cc3ccc4[nH]c([C@@H]5CCCN5C(=O)[C@@H](OC(=O)OC)C(C)C)nc4c3)cc2)c[nH]1)C(C)C", "note": "[Example 480]", "EC50": "< 1"}
{"smiles": "COC(=O)N[C@H](C(=O)N1CCC[C@H]1c1nc2cc(C#Cc3ccc(-c4c[nH]c([C@@H]5CCCN5C(=O)[C@@H](NC(=O)OC)C(C)C)n4)cc3)ccc2[nH]1)c1ccccc1", "note": "[Example 509]", "EC50": "< 1"}
{"smiles": "COC(=O)N[C@H](C(=O)N1CCC[C@H]1c1nc(-c2ccc3cc(-c4ccc5[nH]c([C@@H]6CCCN6C(=O)[C@H](NC(=O)OC)c6ccccc6)nc5c4)ccc3c2)c[nH]1)[C@@H](C)OC", "note": "[Example 463]", "EC50": "< 1"}
{"smiles": "COC(=O)N[C@H](C(=O)N1CCC[C@H]1c1nc(-c2ccc(C#Cc3ccc4[nH]c([C@@H]5C[C@@H](O)CN5C(=O)[C@@H](NC(=O)OC)C(C)C)nc4c3)cc2)c[nH]1)C(C)C", "note": "[Example 517]", "EC50": "< 1"}
{"smiles": "COC(=O)N[C@H](C(=O)N1CCC[C@H]1c1nc(C#Cc2ccc3cc(-c4ccc5[nH]c([C@@H]6CCCN6C(=O)[C@@H](NC(=O)OC)C(C)C)nc5c4)ccc3c2)c[nH]1)C(C)C", "note": "[Example 471]", "EC50": "< 1"}
{"smiles": "COC(=O)N[C@H](C(=O)NCc1nc(-c2ccc(C#Cc3ccc4[nH]c([C@@H]5CCCN5C(=O)[C@@H](NC(=O)OC)C(C)C)nc4c3)cc2)c[nH]1)C(C)C", "note": "[Example 479]", "EC50": "< 1"}
{"smiles": "COC(=O)N[C@H](C(=O)N1CCC[C@H]1c1nc(-c2ccc(/C=C/c3ccc4[nH]c([C@@H]5CCCN5C(=O)[C@@H](NC(=O)OC)C(C)C)nc4c3)s2)c[nH]1)C(C)C", "note": "[Example 453]", "EC50": "< 1"}
{"smiles": "COC(=O)N[C@H](C(=O)N1CCC[C@H]1c1nc(-c2ccc3cc(-c4cc5nc([C@@H]6CCCN6C(=O)[C@@H](NC(=O)OC)C(C)C)[nH]c5cc4Cl)ccc3c2)c[nH]1)C(C)C", "note": "[Example 490]", "EC50": "< 1"}
{"smiles": "COC(=O)N[C@H](C(=O)N1CC2(CC2)C[C@H]1c1nc(-c2ccc(C#Cc3ccc4[nH]c([C@@H]5CCCN5C(=O)[C@@H](NC(=O)OC)C(C)C)nc4c3)cc2)c[nH]1)C(C)C", "note": "[Example 523]", "EC50": "< 1"}
{"smiles": "COC(=O)N[C@@H](C(=O)N1CCC[C@H]1c1nc2ccc(C#Cc3ccc(-c4cnc([C@@H]5CCCN5C(=O)[C@H](NC(=O)OC)c5ccccc5)o4)cc3)cc2[nH]1)c1ccccc1", "note": "[Example 533]", "EC50": "< 1"}
{"smiles": "COC(=O)N[C@H](C(=O)N1CCC[C@H]1c1ncc(-c2ccc(C#Cc3ccc4nc([C@@H]5CCCN5C(=O)[C@@H](NC(=O)OC)C(C)(C)C)[nH]c4c3)cc2)[nH]1)C(C)C", "note": "[Example 529]", "EC50": "< 1"}
{"smiles": "COC(=O)N[C@H](C(=O)N1CCC[C@H]1c1nc2cc(-c3ccc4cc(-c5c[nH]c([C@@H]6CCCN6C(=O)[C@@H](NC(=O)OC)[C@@H](C)OC)n5)ccc4c3)ccc2[nH]1)[C@@H](C)O", "note": "[Example 465]", "EC50": "< 1"}
{"smiles": "CCC(NC(=O)OC)(C(=O)N1CCC[C@H]1c1nc2ccc(C#Cc3ccc(-c4cnc([C@@H]5CCCN5C(=O)[C@@H](NC(=O)OC)C(C)C)[nH]4)cc3)cc2[nH]1)c1ccccc1", "note": "(stereo partly drawn) [Example 532]", "EC50": "< 1"}
{"smiles": "CC[C@H](C)[C@H](NC(=O)OC)C(=O)N1CCC[C@H]1c1nc2cc(-c3ccc4cc(-c5c[nH]c([C@@H]6CCCN6C(=O)[C@@H](NC(=O)OC)[C@@H](C)OC)n5)ccc4c3)ccc2[nH]1", "note": "[Example 466]", "EC50": "< 1"}
{"tested_on": "HCV 1b genotype replicon", "test": "HCV replicon assay (qRT-PCR or luciferase), genotype 1b", "assay_type": "cell-based", "conditions": "Hepatitis C virus, Table 12, numeric values, read-out: 1b EC50", "excerpt": "as §1, §2, §3, §4, §5", "units": {"EC50": "nM"}}
{"smiles": "COC(=O)N[C@H](C(=O)N1C[C@H](C)C[C@H]1c1ncc(-c2ccc(C#Cc3ccc4nc([C@@H]5C[C@@]6(CCCO6)CN5C(=O)[C@@H](NC(=O)OC)C(C)C)[nH]c4c3)cc2)[nH]1)C(C)C", "note": "[Example 628]", "EC50": 0.009}
{"smiles": "COC(=O)N[C@H](C(=O)N1CC2(CC2)C[C@H]1c1nc(-c2ccc(C#Cc3ccc4[nH]c([C@@H]5CC6(CC6)CN5C(=O)[C@@H](NC(=O)OC)C(C)C)nc4c3)cc2)c[nH]1)C(C)C", "note": "[Example 548]", "EC50": 0.004}
{"smiles": "COC(=O)N[C@H](C(=O)N1CCC[C@H]1c1ncc(-c2ccc(C#Cc3ccc4nc([C@@H]5C[C@@]6(CCCCO6)CN5C(=O)[C@@H](NC(=O)OC)C(C)C)[nH]c4c3)cc2)[nH]1)C(C)C", "note": "[Example 632]", "EC50": 0.013}
{"tested_on": "HCV 1b genotype replicon", "test": "HCV replicon assay (qRT-PCR or luciferase), genotype 1b", "assay_type": "cell-based", "conditions": "Hepatitis C virus, Table 12, range class, read-out: 1b EC50 Range", "excerpt": "as §1, §2, §3, §4, §5", "units": {"EC50": "nM"}}
{"smiles": "COC(=O)N[C@H](C(=O)N1CCC[C@H]1c1ncc(-c2ccc(C#Cc3ccc4nc([C@@H]5C[C@@]6(CC(C)=NO6)CN5C(=O)[C@@H](NC(=O)OC)C(C)C)[nH]c4c3)cc2)[nH]1)C(C)C", "note": "[Example 623]", "EC50": "< 1"}
{"smiles": "COC(=O)N[C@H](C(=O)N1[C@@H]2C[C@@H]2C[C@H]1c1ncc(-c2ccc(C#Cc3ccc4nc([C@@H]5CC6(CC6)CN5C(=O)[C@H](NC(=O)OC)c5ccccc5)[nH]c4c3)cc2)[nH]1)C(C)C", "note": "[Example 648]", "EC50": "< 1"}
